Experimental data taken from article PMC12752606, “METTL10‐Mediated PIAS3 Methylation Links Purine Metabolism to Gastric Cancer Progression” (Advanced Science, 2025).
Residues, ends and D or L forms follow the SMILES beside them. *: point of attachment. Cbz = O=C(OCc1ccccc1)*

Legend:
[1] = system: MITF protein levels in HA-PIAS3-overexpressing MKN45 cells; assay: Immunoblotting of MITF in PIAS3-overexpressing cells treated with MG132; assay type: cell-based; conditions: MG132 5 µM for 5 h
Protocol: (§1) Protein extraction from tissues or cells was performed by lysis buffer (20 mM Tris‐HCl (pH 7.5), 150 mM NaCl, 1 mM EDTA, 1 mM EGTA, 2.5 mM sodium pyrophosphate, 1 mM β‐glycerolphosphate, 1% Triton X‐100) supplemented with 1% phenylmethylsulfonyl fluoride (PMSF; Solarbio, P0100) and protease inhibitor cocktail (Apexbio, K1007) and lysed at 4 °C for 60 min, followed by centrifugation at 12000 g for 15 min at 4 °C. For Immunoblotting, the protein concentration was determined using the Pierce BCA Protein Assay Kit (Thermo Fisher Scientific, A55864). The protein samples were denatured by boiling in SDS‐PAGE loading buffer. For immunoprecipitation, antibodies were incubated with Dynabeads Protein G (Thermo, 10004D) at 4 °C for 4 h. The supernatant was then incubated with magnetic beads conjugated with antibodies or anti‐FLAG‐M2 magnetic beads (Sigma–Aldrich, M8823) at 4 °C overnight. Following incubation, the magnetic beads were washed three times with lysis buffer and then boiled in SDS‐PAGE loading buffer. The proteins were separated by sodium dodecyl sulfate polyacrylamide gel electrophoresis (SDS‐PAGE) with One‐Step PAGE Gel Fast Preparation Kit (Vazyme), and then transferred to the PVDF Membrane (Bio‐Rad). After blocking with a protein‐free rapid blocking buffer (Epizyme, PS108P) for 15 min, the membranes were incubated with primary antibodies at 4 °C overnight. […]

[2] = system: MITF levels in MKN45 cells; assay: Immunoblotting of MITF in METTL10-knockdown cells treated with MG132; assay type: cell-based; conditions: MG132 5 µM for 5 hours
Protocol: as §1

CC(C)C[C@@H](C=O)NC(=O)[C@H](CC(C)C)NC(=O)[C@H](CC(C)C)NC(=O)OCc1ccccc1 [MG132] (Cbz-Leu-Leu-Leu-aldehyde)
PIAS3-mediated degradation of MITF [1]: inhibited | Effect on decrease in MITF levels caused by knockdown of METTL10 [2]: completely eliminated the decrease in MITF levels
